Measurements reported in patent US20090099060A1, “Modulation of line-1 reverse transcriptase” (priority 2004, published 2009).
Entries after “also recorded” stand apart in the source; their conditions may differ.

Legend:
U-2 OS cells [1] = test: Telomere length (PNA probe) and cell cycle (PI) by flow cytometry in nucleoside-analog-treated U-2 OS cells; format: cell-based, human
Description: (§1) Telomere length in AZT treated and untreated cell lines was measured by flow cytometry with a telomere-specific peptide nucleic acid (PNA) probe^22,23. To determine cell cycle distribution, cells were stained with propidium iodide (PI)^22. […] AZT at the chosen concentration had no effect on telomere length or cell cycle distribution in the HeLa cells (not shown).
Telomere length in untreated (FIG. 4a) and GCV treated cells (FIG. 4b) was measured by flow cytometry with a telomere-specific PNA probe as described above.
To determine cell cycle distribution, cells were stained with propidium iodide (PI).
(§2) Cell lines: All cell lines used in this study were obtained from American Type Culture Collection (Rockville, Md.). The cells origins included osteosarcoma (Saos-2 and U-2 OS), liver ([…]) and uterine cervix (HeLa). Cells were cultured following ATCC recommendation. For treatment of the cells with AZT, the media was supplemented with 0.2 μM of 3′-azido-2′,3′-dideoxythymidine (Sigma)^28.
(§3) Telomere length measurement by flow cytometry: Cell were stained with telomere specific FITC conjugated (C3TA2)3 PNA (Applied Biosystems) probe and contrastained with 0.06 μg/ml PI as described^21.

[2] = tested on: telomerase-positive tumors (WM1175 malignant melanoma or HUT292DM lung cancer); test: Telomerase-positive tumors (WM1175 or HUT292DM cells) in immunodeficient mice treated with AZT; format: in vivo; conditions: AZT at the dose used for inhibiting the growth of the ALT cancer cells
Description: After induction of the tumors, mice in the experimental groups may be treated with AZT. Mice may be injected i.p. twice a day with solution of AZT in PBS with a total daily dose of 10 mg/kg. Mice in the control group may be injected with PBS. Alternatively, AZT at the same daily dose may be given in drinking water. […] As a separate set of controls, telomerase-positive tumors in nude mouse may be induced by injecting the immunodeficient mice with WM1175 (malignant melanoma) or HUT292DM (lung cancer) cells instead of the transformed IIICF/c fibroblast cells.

Saos-2 cells = test: Telomere length (PNA probe) and cell cycle (PI) by flow cytometry in AZT-treated Saos-2 cells; format: cell-based, human; conditions: Saos-2, AZT 0.2 μM, 14 days
Description: as §1, §2, §3

[3] = tested on: U-2 OS/ras-V12 s.c. tumors; test: s.c. tumor growth from U-2 OS/ras-V12 cells in nude mice, AZT in drinking water; format: in vivo; conditions: AZT 2 mg/ml in drinking water from day zero
From the text: Exemplary in vivo assays of anti-tumor efficacy of AZT using nude mice subcutaneous (s.c.) tumors grown from the U-2 OS human osteosarcoma cell lines (i.e., xenografts bearing mice) as models are described below.
Human cancerous cells needed for in vivo assays may be prepared, for example, as follows: Telomerase-negative, but ALT positive, U-2 OS human osteosarcoma cell lines are obtained from public sources such as ATCC. Cells are maintained in McCoy 5 media supplemented with 10% fetal calf serum at 37° C. in a humidified atmosphere of 5% CO2. […] Accordingly, activated ras-oncogene expression vector is introduced in near-confluent U-2 OS cells by Lipofectamine 2000% transfection according manufacturer's instructions. One day before transfection U-2 Os cells are seeded at a density 1×10^5 cells in a 6 well-plate. Plasmid pBABE-puro-ras-V12 (available publicly) is linearized by restriction digest with Sca I enzyme. The cells are transfected with the linearized construct and grown in culture. One day after the transfection, cells may be diluted. Then the cells are selected with puromycin ([…]) for 8 days. […]
In one embodiment, impairment of s.c. tumor growth or time to progression rather than decrease in size of an established tumor is assessed. […] Tumors are measured every 2-3 days. […] Tumor volume is calculated with formula 4/3πr^3, where r is the radius of the tumor.

U-2 OS cells [4] = test: Bromodeoxyuridine (BdU) incorporation, rate of DNA synthesis in AZT-treated U-2 OS cells; format: cell-based, human; conditions: AZT for 10, 17 and 40 days
Description: Rate of DNA synthesis was determined by incorporation of 5-bromodeoxyuridine (BdU)^24.
as §2
Bromodeoxyuridine incorporation: Cell staining, for BdU incorporation, was performed using cells which were incubated with […] BrdU (Sigma) for 2.5 h, stained with BU-33 anti-BrdU monoclonal antibodies (Sigma) and FITC labeled Alexa 488 goat anti-mouse IgG (H+ L) (Fab′) fragments (Molecular Probes), contrastained with 50 μg/ml PI (Sigma) and analyzed by flow cytometry as described^24.

HeLa cells = test: Telomere length and cell cycle by flow cytometry in AZT-treated telomerase-positive HeLa cells; format: cell-based, human; conditions: AZT under the same conditions
Description: as §1, §2, §3

[5] = U-2 OS, GCV 0.3 μg/ml, 14 days, listed as ganciclovir

SMILES | DNA content (PI staining) compared to untreated cells (U-2 OS cells [1]; AZT treated cells at later stages of treatment) | treatment time after which changes in cell cycle distribution, DNA synthesis and telomere length could be detected (U-2 OS cells [1]; U-2 OS, AZT) [days] | apoptosis (U-2 OS cells [1]; U-2 OS, AZT 0.2 μM, 14 days) | cell cycle distribution (PI) (U-2 OS cells [1]; U-2 OS, AZT 0.2 μM, 14 days) | telomere length (telomere-specific PNA fluorescence) (U-2 OS cells [1]; U-2 OS, AZT 0.2 μM, 14 days) | telomere length over time of treatment (U-2 OS cells [1]; U-2 OS, AZT for 10, 17 and 40 days) | inhibition of telomerase-positive tumors [2] | apoptosis (Saos-2 cells) | cell cycle distribution (PI) (Saos-2 cells) | telomere length (telomere-specific PNA fluorescence) (Saos-2 cells) | tumor development [3] | rate of DNA synthesis (BdU incorporation) (U-2 OS cells [4]) | cell cycle distribution (HeLa cells) | telomere length (HeLa cells) | apoptosis (U-2 OS cells [1]; U-2 OS, GCV 0.3 μg/ml, 14 days) | cell cycle distribution (PI) (U-2 OS cells [1]; U-2 OS, GCV 0.3 μg/ml, 14 days) | telomere length (telomere-specific PNA probe) (U-2 OS cells [1]; U-2 OS, GCV 0.3 μg/ml, 14 days) | cell cycle distribution (PI) (U-2 OS cells [1]; [5]) | telomere length (telomere-specific PNA probe) (U-2 OS cells [1]; [5])
Cc1cn([C@H]2C[C@H](N=[N+]=[N-])[C@@H](CO)O2)c(=O)[nH]c1=O [AZT, 3′-azido-2′,3′-dideoxythymidine] | higher DNA content | 10 | massive apoptosis | G2 arrest; also recorded: changes in cell cycle | telomere shortening; also recorded: decrease in telomere length | progressive telomere shortening | cannot be inhibited | massive apoptosis | G2 arrest; also recorded: changes in cell cycle | telomere shortening; also recorded: decrease in telomere length | remain tumor free | decrease in DNA synthesis | no effect | no effect |  |  |  |  | 
Nc1nc(O)c2ncn(COC(CO)CO)c2n1 [GCV, ganciclovir] |  |  |  |  |  |  |  |  |  |  |  |  |  |  | massive apoptosis | G2 arrest | telomere shortening | changes in cell cycle | decrease in telomere length
